Patent US4450269A, “Mono-5-substituted-3-chloro-4H-1,2,6-thiadiazin-4-one antifungal agents” (FMC Corporation, priority 1980, dated 1984)
Where two headings read alike, the source gives them in different places.

Key:
[1] = tested on: Phytophthora infestans; format: cell-based; settings: PI, 48 hours
[2] = tested on: Sclerotinia fructicola; experiment: Mycelial growth test; format: cell-based; settings: Sclerotinia, 72 h, SF, read-out: Percent Fungus Growth Inhibition
Description: | SF = Sclerotinia fructicola

[3] = tested on: Uromyces phaseoli; experiment: whole plant or invertebrate; settings: foliar, 24 h, read-out: Percent Disease Control, curative, bean rust
[4] = tested on: Uromyces phaseoli; experiment: Spore germination test; format: cell-based; settings: UP, 48 hours
Procedure: (§1) The test chemical was dissolved or suspended in acetone in an amount such that 0.8 ml of the resulting suspension or solution, mixed with 40 ml water agar produced a water agar solution containing 40, 10, 2.5 and 1 ppm of test chemical. The resulting agar solution, at 50° C., was then divided equally between two sterile petri dishes, each having four separated quadrants, and allowed to solidify. […] quadrants of each dish were flooded with 0.1 ml of a spore suspension in sterile water. Spores of two pathogens, Erysiphe polygoni and Uromyes phaseoli, from infected plant leaves, were brushed on the remaining two quadrants. The tests were then incubated 48 hours, at 24° C.
(§2) Readings were then taken and the percentage of germinated spores calculated. From this percentage, a spore germination rating was assigned as follows: […]

[5] = tested on: Alternaria solani; experiment: Spore germination test; format: cell-based; settings: AS, 48 hours
Procedure: as §1, §2

[6] = tested on: Botrytis cinerea; experiment: Spore germination test; format: cell-based; settings: BC, 48 hours
Procedure: as §1, §2

[7] = tested on: Erysiphe polygoni; experiment: Spore germination test; format: cell-based; settings: EP, 48 hours
Procedure: as §1, §2

[8] = tested on: Rhizoctonia solani; experiment: Mycelial growth test; format: cell-based; settings: Rhizoctonia solani, 72 h, RS, read-out: Percent Fungus Growth Inhibition
Description: | RS = Rhizoctonia solani

[9] = tested on: Cladosporium cucumerinum; experiment: Mycelial growth test; format: cell-based; settings: Cladosporium cucumerinum, CC, read-out: Percent Fungus Growth Inhibition
Description: |CC = Cladosporium cucumerinum

[10] = tested on: Phytophthora infestans; experiment: whole plant or invertebrate; format: in vivo; settings: Phytophthora infestans, in Solanum lycopersicum, foliar, read-out: Percent Disease Control, foliar, tomato late blight, 150 ppm, protective
[11] = tested on: Fusarium solani; experiment: Mycelial growth test; format: cell-based; settings: Fusarium solani, 72 h
[12] = tested on: Pyricularia oryzae; format: cell-based; settings: PO, 48 hours
[13] = tested on: Cladosporium cucumerinum; experiment: Spore germination test; format: cell-based; settings: CC, 48 hours
Procedure: CC = Cladosporium cucumerinum
as §1, §2

[14] = tested on: Uromyces phaseoli; experiment: whole plant or invertebrate; settings: foliar, read-out: Percent Disease Control, foliar, bean rust
[15] = tested on: Alternaria solani; experiment: Mycelial growth test; format: cell-based; settings: Alternaria solani, 72 h, AS, read-out: Percent Fungus Growth Inhibition
[16] = tested on: Helminthosporium oryzae; experiment: Mycelial growth test; settings: Bipolaris oryzae, 72 h; for inhibition at 5 ppm: read-out: Percent Fungus Growth Inhibition, HO, 5 ppm, 72 hours; for inhibition at 10 ppm: read-out: Percent Fungus Growth Inhibition, HO, 10 ppm, 72 hours
[17] = tested on: Pythium ultimum; experiment: Mycelial growth test; format: cell-based; settings: Globisporangium ultimum, 72 h, PU, read-out: Percent Fungus Growth Inhibition
[18] = tested on: Pyricularia oryzae; experiment: microbe, parasite or virus in culture; format: cell-based; settings: Pyricularia oryzae, 72 h; for inhibition at 5 ppm: read-out: Percent Fungus Growth Inhibition, PO, 5 ppm, 72 hours; for inhibition at 10 ppm: read-out: Percent Fungus Growth Inhibition, PO, 10 ppm, 72 hours
[19] = tested on: Erysiphe polygoni; experiment: whole plant or invertebrate; settings: foliar, 24 h, read-out: Percent Disease Control, curative, bean powdery mildew
[20] = tested on: Pyricularia oryzae; experiment: whole plant or invertebrate; format: in vivo; settings: Pyricularia oryzae, foliar, 24 h, read-out: Percent Disease Control, curative, rice blast, 150 ppm, 24 hours after inoculation
[21] = tested on: Cercospora beticola; experiment: whole plant or invertebrate; settings: in Beta vulgaris, foliar, 24 h, read-out: Percent Disease Control, curative, sugar beet leaf spot
[22] = tested on: Fusarium solani; experiment: Soil treatment, bean root rot; format: in vivo; settings: Fusarium solani, soil, 336 h; 150 ppm suspension, 3.8 mg active per pot; read-out: Percent Disease Control, seed/soil, bean root rot
Procedure: In a similar manner the soil around a bean seedling was drenched with a sufficient amount of 150 ppm suspension of test chemical to provide 3.8 mg active per pot. Twenty-four hours later the soil was inoculated with a suspension of minced mycelium of Fusarium solani. The inoculated plants were then placed in a greenhouse, evaluated after fourteen days, and percent control of root rot damage calculated. The results, reported in Table III, indicate only a few of the compounds tested are effective in treating Bean Root Rot but that these provide a high degree of control.

[23] = PS, 72 hours, read-out: Percent Fungus Growth Inhibition

## CS(=O)(=O)c1ccc(Oc2nsnc(Cl)c2=O)cc1 [Compound 41, 3-chloro-5-[(4-methylsulfonyl)phenoxy]-4H--1,2,6-thiadiazin-4-one]
[1]; 1.0 ppm
  Spore Germination Rating: 4 (80-100)
[1]; 2.5 ppm
  Spore Germination Rating: 2 (40-60)
[1]; 10 ppm
  Spore Germination Rating: 0 (0-10)
[1]; 40 ppm
  Spore Germination Rating: 0 (0-10)
[2]
  inhibition at 5 ppm: 56%
  inhibition at 10 ppm: 78%
[2]; 20 ppm
  inhibition at 20 ppm: 100%
[2]; 40 ppm
  inhibition at 40 ppm: 100%
[3]
  pest or weed control at 150 ppm: 0%
[4]; 1.0 ppm
  Spore Germination Rating: 4 (80-100)
[4]; 2.5 ppm
  Spore Germination Rating: 1 (10-40)
[4]; 10 ppm
  Spore Germination Rating: 0 (0-10)
[4]; 40 ppm
  Spore Germination Rating: 0 (0-10)
[5]; 1.0 ppm
  Spore Germination Rating: 4 (80-100)
[5]; 2.5 ppm
  Spore Germination Rating: 2 (40-60)
[5]; 10 ppm
  Spore Germination Rating: 0 (0-10)
[5]; 40 ppm
  Spore Germination Rating: 0 (0-10)
[6]; 1.0 ppm
  Spore Germination Rating: 0 (0-10)
[6]; 2.5 ppm
  Spore Germination Rating: 0 (0-10)
[6]; 10 ppm
  Spore Germination Rating: 4 (80-100)
[6]; 40 ppm
  Spore Germination Rating: 3 (60-80)
[7]; 1.0 ppm
  Spore Germination Rating: 2 (40-60)
[7]; 2.5 ppm
  Spore Germination Rating: 2 (40-60)
[7]; 10 ppm
  Spore Germination Rating: 1 (10-40)
[7]; 40 ppm
  Spore Germination Rating: 0 (0-10)
[8]
  inhibition at 5 ppm: 0%
  inhibition at 10 ppm: 0%
[8]; 20 ppm
  inhibition at 20 ppm: 51%
[8]; 40 ppm
  inhibition at 40 ppm: 64%
[9]; 72 h, 5 ppm
  inhibition at 5 ppm: 10%
[9]; 72 h, 10 ppm
  inhibition at 10 ppm: 32%
[9]; 72 h, 40 ppm
  inhibition at 40 ppm: 65%
[9]; CC20, 72 h, 20 ppm
  inhibition at 20 ppm: 48%
[10]
  pest or weed control at 150 ppm: 90%
[11]; [23]
  inhibition at 5 ppm: 16%
  inhibition at 10 ppm: 16%
[11]; PS, 20 ppm, 72 hours, read-out: Percent Fungus Growth Inhibition
  inhibition at 20 ppm: 42%
[11]; read-out: Percent Fungus Growth Inhibition, PS, 40 ppm, 72 hours
  inhibition at 40 ppm: 68%
[12]; 1.0 ppm
  Spore Germination Rating: 4 (80-100)
[12]; 2.5 ppm
  Spore Germination Rating: 3 (60-80)
[12]; 10 ppm
  Spore Germination Rating: 0 (0-10)
[12]; 40 ppm
  Spore Germination Rating: 0 (0-10)
[13]; 1.0 ppm
  Spore Germination Rating: 0 (0-10)
[13]; 2.5 ppm
  Spore Germination Rating: 0 (0-10)
[13]; 10 ppm
  Spore Germination Rating: 0 (0-10)
[13]; 40 ppm
  Spore Germination Rating: 0 (0-10)
[14]
  pest or weed control at 150 ppm: 0%
[15]
  inhibition at 5 ppm: 54%
  inhibition at 10 ppm: 58%
[15]; 20 ppm
  inhibition at 20 ppm: 58%
[15]; 40 ppm
  inhibition at 40 ppm: 100%
[16]
  inhibition at 5 ppm: 40%
  inhibition at 10 ppm: 60%
[16]; read-out: Percent Fungus Growth Inhibition, HO, 20 ppm, 72 hours
  inhibition at 20 ppm: 33%
[16]; read-out: Percent Fungus Growth Inhibition, HO, 40 ppm, 72 hours
  inhibition at 40 ppm: 60%
[17]
  inhibition at 5 ppm: 0%
  inhibition at 10 ppm: 100%
[17]; 20 ppm
  inhibition at 20 ppm: 100%
[17]; 40 ppm
  inhibition at 40 ppm: 100%
[18]
  inhibition at 5 ppm: 22%
  inhibition at 10 ppm: 56%
[18]; read-out: Percent Fungus Growth Inhibition, PO, 20 ppm, 72 hours
  inhibition at 20 ppm: 59%
[18]; read-out: Percent Fungus Growth Inhibition, PO, 40 ppm, 72 hours
  inhibition at 40 ppm: 93%
[19]
  pest or weed control at 150 ppm: 0%
[20]
  pest or weed control at 150 ppm: 0%

## O=c1c(Cl)nsnc1Cl [Compound 1, 3,5-dichloro-4H--1,2,6-thiadiazin-4-one]
[21]
  pest or weed control at 150 ppm: 0%
[2]; 2.5 ppm
  inhibition at 2.5 ppm: 100%
[2]
  inhibition at 5 ppm: 100%
  inhibition at 10 ppm: 100%
[3]
  pest or weed control at 150 ppm: 0%
[8]; 2.5 ppm
  inhibition at 2.5 ppm: 100%
[8]
  inhibition at 5 ppm: 64%
  inhibition at 10 ppm: 100%
[10]
  pest or weed control at 150 ppm: 0%
[11]; PS, 2.5 ppm, 72 hours, read-out: Percent Fungus Growth Inhibition
  inhibition at 2.5 ppm: 85%
[11]; [23]
  inhibition at 5 ppm: 100%
  inhibition at 10 ppm: 100%
[22]
  pest or weed control at 150 ppm, 3.8 mg/pot: 0%
[14]
  pest or weed control at 150 ppm: 0%
[15]; 2.5 ppm
  inhibition at 2.5 ppm: 100%
[15]
  inhibition at 5 ppm: 100%
  inhibition at 10 ppm: 100%
[16]; read-out: Percent Fungus Growth Inhibition, HO, 2.5 ppm, 72 hours
  inhibition at 2.5 ppm: 100%
[16]
  inhibition at 5 ppm: 100%
  inhibition at 10 ppm: 100%
[17]; 2.5 ppm
  inhibition at 2.5 ppm: 0%
[17]
  inhibition at 5 ppm: 0%
  inhibition at 10 ppm: 100%
[18]; read-out: Percent Fungus Growth Inhibition, PO, 2.5 ppm, 72 hours
  inhibition at 2.5 ppm: 27%
[18]
  inhibition at 5 ppm: 42%
  inhibition at 10 ppm: 82%
[19]
  pest or weed control at 150 ppm: 0%
[20]
  pest or weed control at 150 ppm: 0%
